# Measurements published in US9320276B2, “N-hetarylmethyl pyrazolylcarboxamides” (BAYER INTELLECTUAL PROPERTY GMBH, priority 2010, dated 2016).
# System: Alternaria solani
# Test: in vivo preventive test on Alternaria solani (tomato)
# Conditions: 500 ppm of active ingredient, evaluated 7 days after inoculation
# Protocol: Solvent: 49 parts by weight of N,N-dimethylformamide Emulsifier: 1 part by weight of Alkylarylpolyglycolether To produce a suitable preparation of active compound, 1 part by weight of active compound is mixed with the stated amounts of solvent and emulsifier, and the concentrate is diluted with water to the desired concentration. To test for preventive activity, young plants are sprayed with the preparation of active compound at the stated rate of application. One day after this treatment, the plants are inoculated with an aqueous spore suspension of Alternaria solani. The plants remain for one day in an incubation cabinet at approximately 22° C. and a relative atmospheric humidity of 100%. Then the plants are placed in an incubation cabinet at approximately 20° C. and a relative atmospheric humidity of 96%. The test is evaluated 7 days after the inoculation. 0% means an efficacy which corresponds to that of the untreated control while an efficacy of 100% means that no disease is observed.
row,SMILES,Efficacy
1,Cn1nc(C(F)F)c(C(=O)N(Cc2cc3ccccc3n2-c2ccccc2)C2CC2)c1F [Example 155],95%
2,Cn1nc(C(F)F)c(C(=O)N(Cc2cccc3ccsc23)C2CC2)c1F [Example 93],100%
3,Cc1nn(-c2ccccc2)nc1CN(C(=S)c1c(C(F)F)nn(C)c1F)C1CC1 [Example 132],90%
4,CC(c1csc2ccccc12)N(C(=O)c1c(C(F)F)nn(C)c1F)C1CC1 (racemic) [Example 85],80%

# System: Leptosphaeria nodorum
# Test: in vivo preventive test on Leptosphaeria nodorum (wheat)
# Conditions: 500 ppm of active ingredient, evaluated 7-9 days after inoculation
# Protocol: (§1) Solvent: 49 parts by weight of N,N-dimethylacetamide Emulsifier: 1 part by weight of alkylaryl polyglycol ether To produce a suitable preparation of active compound, 1 part by weight of active compound is mixed with the stated amounts of solvent and emulsifier, and the concentrate is diluted with water to the desired concentration. To test for preventive activity, young plants are sprayed with a preparation of active compound at the stated rate of application. One day after this treatment, the plants are inoculated with an aqueous spore suspension of Leptosphaeria nodorum. The plants remain for 48 hours in an incubation cabinet at 22° C. and a relative atmospheric humidity of 100%. Then the plants are placed in a greenhouse at a temperature of approximately 22° C. and a relative atmospheric humidity of approximately 90%. The test is evaluated 7-9 days after the inoculation. 0% means an efficacy which corresponds to that of the untreated control, while an efficacy of 100% means that no disease is observed.
row,SMILES,Efficacy
1,Cn1nc(C(F)F)c(C(=O)N(Cc2cc3ccccc3o2)C2CC2)c1F [Example 71],80%
2,Cn1nc(C(F)F)c(C(=O)N(Cc2cc3ccccc3n2-c2ccccc2)C2CC2)c1F [Example 155],80%
3,CC(c1csc2ccccc12)N(C(=O)c1c(C(F)F)nn(C)c1F)C1CC1 (racemic) [Example 85],100%

# System: Pyrenophora teres
# Test: in vivo preventive test on Pyrenophora teres (barley)
# Conditions: 500 ppm of active ingredient, evaluated 7-9 days after inoculation
# Protocol: as §1, with “weight of N,N-dimethylformamide Emulsifier: 1” for “weight of N,N-dimethylacetamide Emulsifier: 1”, “sprayed with the preparation of” for “sprayed with a preparation of”, “suspension of Pyrenophora teres. The plants” for “suspension of Leptosphaeria nodorum. The plants”, “of approximately 20° C. and” for “of approximately 22° C. and”, “of approximately 80%. The test” for “of approximately 90%. The test”, “the untreated control while an” for “the untreated control, while an”
row,SMILES,Efficacy
1,Cn1nc(C(F)F)c(C(=O)N(Cc2cc3ccccc3o2)C2CC2)c1F [Example 71],100%
2,Cn1nc(C(F)F)c(C(=O)N(Cc2cc3ccccc3n2-c2ccccc2)C2CC2)c1F [Example 155],100%
3,Cn1nc(C(F)F)c(C(=O)N(Cc2cccc3ccsc23)C2CC2)c1F [Example 93],100%
4,Cc1nn(-c2ccccc2)nc1CN(C(=S)c1c(C(F)F)nn(C)c1F)C1CC1 [Example 132],100%
5,CC(c1csc2ccccc12)N(C(=O)c1c(C(F)F)nn(C)c1F)C1CC1 (racemic) [Example 85],100%

# System: Venturia inaequalis
# Test: in vivo preventive test on Venturia inaequalis (apple scab)
# Conditions: 100 ppm of active ingredient, evaluated 10 days after inoculation
# Protocol: Solvent: 24.5 parts by weight of acetone • 24.5 parts by weight of N,N-dimethylacetamide Emulsifier: 1 part by weight of alkylaryl polyglycol ether To produce a suitable preparation of active compound, 1 part by weight of active compound is mixed with the stated amounts of solvent and emulsifier, and the concentrate is diluted with water to the desired concentration. To test for preventive activity, young plants are sprayed with the preparation of active compound at the stated rate of application. After the spray coating has dried on, the plants are inoculated with an aqueous conidia suspension of the causal agent of apple scab (Venturia inaequalis) and then remain for 1 day in an incubation cabinet at approximately 20° C. and a relative atmospheric humidity of 100%. The plants are then placed in a greenhouse at approximately 21° C. and a relative atmospheric humidity of approximately 90%. The test is evaluated 10 days after the inoculation. 0% means an efficacy which corresponds to that of the untreated control, while an efficacy of 100% means that no disease is observed.
row,SMILES,Efficacy
1,Cc1nn(-c2ccccc2)nc1CN(C(=S)c1c(C(F)F)nn(C)c1F)C1CC1 [Example 132],98%
2,CC(c1csc2ccccc12)N(C(=O)c1c(C(F)F)nn(C)c1F)C1CC1 (racemic) [Example 85],100%

# System: not listed separately
# Test: logP by HPLC on reversed-phase column (EEC Directive 79/831 Annex V.A8)
# Assay type: physicochemical
# Conditions: HPLC on reversed-phase column (C 18), 40° C., 0.1% aqueous formic acid and acetonitrile, linear gradient 10% to 90% acetonitrile
# In short: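 Reversed-phase C18 HPLC at 40° C with 0.1% aqueous formic acid/acetonitrile, linear gradient 10% to 90% acetonitrile. LogP obtained from retention time by linear interpolation between successive unbranched alkan-2-ones (3 to 16 carbons) of known logP. Lambda-max taken from UV spectra at 200-400 nm at chromatographic peak maxima.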
row,SMILES,logP
1,Cn1nc(C(F)F)c(C(=O)N(Cc2cc3ccccc3o2)C2CC2)c1F [Example 71],3.11
2,Cn1nc(C(F)F)c(C(=O)N(Cc2cccc3ccsc23)C2CC2)c1F [Example 93],3.19
3,CC(c1csc2ccccc12)N(C(=O)c1c(C(F)F)nn(C)c1F)C1CC1 (racemic) [Example 85],3.60

# Now from value to compound:
row,logP,SMILES
1,3.96,Cn1nc(C(F)F)c(C(=O)N(Cc2cc3ccccc3n2-c2ccccc2)C2CC2)c1F [Example 155]
2,4.04,Cc1nn(-c2ccccc2)nc1CN(C(=S)c1c(C(F)F)nn(C)c1F)C1CC1 [Example 132]

# System: Fusarium nivale (var. majus)
# Test: in vivo curative test on Fusarium nivale (wheat)
# Conditions: 500 ppm of active ingredient, evaluated 5 days after inoculation
# Protocol: Solvent: 49 parts by weight of N,N-dimethylacetamide Emulsifier: 1 part by weight of alkylaryl polyglycol ether To produce a suitable preparation of active compound, 1 part by weight of active compound or active compound combination is mixed with the stated amounts of solvent and emulsifier, and the concentrate is diluted with water to the desired concentration. To test for curative activity, young plants are slightly injured by using a sandblast and afterwards they are sprayed with a conidia suspension of Fusarium nivale (var. majus) and placed for 24 hours in a greenhouse under a translucent incubation cabinet at a temperature of approximately 10° C. and a relative atmospheric humidity of approximately 100% and are subsequently sprayed with the preparation of active compound at the stated rate of application. After the spray coating has been dried, the plants remain in the greenhouse under translucent incubation cloches at a temperature of approximately 10° C. and a relative atmospheric humidity of approximately 100%. The test is evaluated 5 days after the inoculation. 0% means an efficacy which corresponds to that of the untreated control, while an efficacy of 100% means that no disease is observed.
row,SMILES,Efficacy
1,Cn1nc(C(F)F)c(C(=O)N(Cc2cc3ccccc3o2)C2CC2)c1F [Example 71],100%
2,Cn1nc(C(F)F)c(C(=O)N(Cc2cc3ccccc3n2-c2ccccc2)C2CC2)c1F [Example 155],100%
3,Cn1nc(C(F)F)c(C(=O)N(Cc2cccc3ccsc23)C2CC2)c1F [Example 93],71%
4,CC(c1csc2ccccc12)N(C(=O)c1c(C(F)F)nn(C)c1F)C1CC1 (racemic) [Example 85],100%

# System: Blumeria graminis fsp. hordei
# Test: in vivo preventive test on Blumeria graminis (barley)
# Conditions: 500 ppm of active ingredient, evaluated 7 days after inoculation
# Protocol: Solvent: 49 parts by weight of N,N-dimethylacetamide Emulsifier: 1 part by weight of alkylaryl polyglycol ether To produce a suitable preparation of active compound, 1 part by weight of active compound or active compound combination is mixed with the stated amounts of solvent and emulsifier, and the concentrate is diluted with water to the desired concentration. To test for preventive activity, young plants are sprayed with the preparation of active compound or active compound combination at the stated rate of application. After the spray coating has been dried, the plants are dusted with spores of Blumeria graminis fsp. hordei. The plants are placed in the greenhouse at a temperature of approximately 18° C. and a relative atmospheric humidity of approximately 80% to promote the development of mildew pustules. The test is evaluated 7 days after the inoculation. 0% means an efficacy which corresponds to that of the untreated control, while an efficacy of 100% means that no disease is observed.
row,SMILES,Efficacy
1,Cn1nc(C(F)F)c(C(=O)N(Cc2cc3ccccc3o2)C2CC2)c1F [Example 71],89%
2,Cn1nc(C(F)F)c(C(=O)N(Cc2cc3ccccc3n2-c2ccccc2)C2CC2)c1F [Example 155],70%
3,Cn1nc(C(F)F)c(C(=O)N(Cc2cccc3ccsc23)C2CC2)c1F [Example 93],94%
4,CC(c1csc2ccccc12)N(C(=O)c1c(C(F)F)nn(C)c1F)C1CC1 (racemic) [Example 85],100%

# System: Sphaerotheca fuliginea
# Test: in vivo preventive test on Sphaerotheca fuliginea (cucumber)
# Conditions: 500 ppm of active ingredient, evaluated 7 days after inoculation
# Protocol: Solvent: 49 parts by weight of N,N-dimethylformamide Emulsifier: 1 part by weight of Alkylarylpolyglycolether To produce a suitable preparation of active compound, 1 part by weight of active compound is mixed with the stated amounts of solvent and emulsifier, and the concentrate is diluted with water to the desired concentration. To test for preventive activity, young plants are sprayed with the preparation of active compound at the stated rate of application. One day after this treatment, the plants are inoculated with an aqueous spore suspension of Sphaerotheca fuliginea. Then the plants are placed in a greenhouse at approximately 23° C. and a relative atmospheric humidity of approximately 70%. The test is evaluated 7 days after the inoculation. 0% means an efficacy which corresponds to that of the untreated control, while an efficacy of 100% means that no disease is observed.
row,SMILES,Efficacy
1,Cc1nn(-c2ccccc2)nc1CN(C(=S)c1c(C(F)F)nn(C)c1F)C1CC1 [Example 132],100%
2,CC(c1csc2ccccc12)N(C(=O)c1c(C(F)F)nn(C)c1F)C1CC1 (racemic) [Example 85],94%

# System: Septoria tritici
# Test: in vivo preventive test on Septoria tritici (wheat)
# Conditions: 500 ppm of active ingredient, evaluated 21 days after inoculation
# Protocol: (§2) Solvent: 49 parts by weight of N,N-dimethylacetamide Emulsifier: 1 part by weight of alkylaryl polyglycol ether To produce a suitable preparation of active compound, 1 part by weight of active compound or active compound combination is mixed with the stated amounts of solvent and emulsifier, and the concentrate is diluted with water to the desired concentration. To test for preventive activity, young plants are sprayed with the preparation of active compound or active compound combination at the stated rate of application. After the spray coating has been dried, the plants are sprayed with a spore suspension of Septoria tritici. The plants remain for 48 hours in an incubation cabinet at approximately 20° C. and a relative atmospheric humidity of approximately 100% and afterwards for 60 hours at approximately 15° C. in a translucent incubation cabinet at a relative atmospheric humidity of approximately 100%. The plants are placed in the greenhouse at a temperature of approximately 15° C. and a relative atmospheric humidity of approximately 80%. The test is evaluated 21 days after the inoculation. 0% means an efficacy which corresponds to that of the untreated control, while an efficacy of 100% means that no disease is observed.
row,SMILES,Efficacy
1,Cn1nc(C(F)F)c(C(=O)N(Cc2cc3ccccc3o2)C2CC2)c1F [Example 71],100%
2,Cn1nc(C(F)F)c(C(=O)N(Cc2cc3ccccc3n2-c2ccccc2)C2CC2)c1F [Example 155],100%
3,Cn1nc(C(F)F)c(C(=O)N(Cc2cccc3ccsc23)C2CC2)c1F [Example 93],100%
4,CC(c1csc2ccccc12)N(C(=O)c1c(C(F)F)nn(C)c1F)C1CC1 (racemic) [Example 85],90%

# System: Puccinia triticina
# Test: in vivo protective test on Puccinia triticina (wheat)
# Conditions: 500 ppm of active ingredient, preventive, evaluated 8 days after inoculation
# Protocol: as §2, with “Puccinia triticina.” for “Septoria tritici.”, “approximately” for “approximately 100% and afterwards for 60 hours at approximately 15° C. in a translucent incubation cabinet at a relative atmospheric humidity of approximately”, “20°” for “15°”, “8” for “21”
row,SMILES,Efficacy
1,Cn1nc(C(F)F)c(C(=O)N(Cc2cc3ccccc3n2-c2ccccc2)C2CC2)c1F [Example 155],75%
2,Cn1nc(C(F)F)c(C(=O)N(Cc2cccc3ccsc23)C2CC2)c1F [Example 93],100%
